One compound from publication doi:10.1101/2025.03.14.643404, “A Bivalent Molecular Glue Linking Lysine Acetyltransferases to Oncogene-induced Cell Death” (bioRxiv, 2025) can be followed below.

Like-named read-outs stand apart in the source and are kept apart here.

This experiment addresses T1, p300^BD (Homo sapiens, UniProt Q09472).
T1 sequence (Q09472 1049-1156 limits assumed): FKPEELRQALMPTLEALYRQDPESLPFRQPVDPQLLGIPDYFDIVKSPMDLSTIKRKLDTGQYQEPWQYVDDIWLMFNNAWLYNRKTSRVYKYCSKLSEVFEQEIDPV
Description: Isothermal calorimetry, p300BD titrations. Type of experiment: binding. The conditions noted are these: ITC; for Kd: 25 °C. The procedure:
12 hours prior to performing ITC, frozen stocks of 6xHis-p300^BD and BCL6^BTB were dialyzed for two hours in ITC buffer at 4°C (50 mM HEPES pH 7.4, 100 μM TCEP, 150 mM NaCl), followed by dialysis in fresh ITC buffer overnight at 4°C to remove glycerol and equalize protein mixtures. Samples were centrifuged at 10,000g for 10 min to remove any precipitate. In all titrations, DMSO was added to protein mixtures to match the DMSO concentration of ligand dissolved in ITC buffer. For binary assays with TCIP3, dialyzed 6xHis-p300^BD or BCL6^BTB were titrated from the syringe into a cell containing TCIP3 dissolved in ITC buffer. For p300 titrations, 50 μM or 25 μM protein was titrated into 5 μM or 2.5 μM, respectively, of TCIP3. For BCL6 titrations, 70 μM or 40 μM protein was titrated into 7 μM or 5 μM, respectively, of TCIP3. For ternary titrations, 20× 6xHis-p300^BD was incubated with 1x TCIP3 in the cell to drive saturation of the binary complex, followed by a titration of 10x BCL6^BTB from the syringe, at 310 rpm stirring at 25°C. The following concentrations were used in each run: 15 μM BCL6^BTB, 30 μM p300, and 1.5 μM TCIP3; 18 μM BCL6 ^BTB, 36 μM 6xHis-p300^BD, and 1.8 μM TCIP3; or 10 μM BCL6 ^BTB, 20 μM 6xHis-p300^BD, and 1 μM TCIP3. Alternatively, 20x BCL6^BTB was incubated with 1x TCIP3 in the cell to drive saturation of the binary complex, followed by a titration of 10× 6xHis-p300^BD from the syringe, at 310 rpm stirring at 25°C. The following concentrations were used in each run: 30 μM BCL6, 15 μM 6xHis-p300^BD, and 1.5 μM TCIP3; 20 μM BCL6 ^BTB, 10 μM 6xHis-p300^BD, and 1 μM TCIP3; or 40 μM BCL6 ^BTB, 20 μM 6xHis-p300^BD, and 2 μM TCIP3. The first one or two injections and outliers from instrument noise were routinely excluded. Data were fit to a one-site model using MicroCal LLC Origin software. The following injection parameters were used for each run: (Total injection number: 35; Cell temp: 25 °C; Ref power: 10; Initial delay: 250 s; stirring speed: 310; Feedback mode: High; volume: 8 μL; Duration: 13.7 s; Filter period: 2; initial injection volume: 2 μL).

On to `CNC(=O)COc1cc2cc(Nc3nc(N4CCC(C(=O)N5CCN(CCC(=O)N6CCC(n7nc(N8CCCc9cc(-c%10cnn(C)c%10)c(C(F)F)cc98)c8c7CCN(C(=O)NC)C8)CC6)CC5)CC4)ncc3Cl)cc(OC)c2n(C)c1=O` [TCIP3], for which the dissociation constant Kd is, setting by setting: (p300BD titrated into BCL6BTB-saturated TCIP3, read-out: Kd, p300 into BCL6:TCIP3 (ternary)) 2.37 nM; (p300BD titrated into TCIP3, read-out: Kd, binary p300:TCIP3) 8.28 nM. In addition, for the setting “α = Kd binary/Kd ternary”, the “α p300 into BCL6:TCIP3” value was 3.5.
